{
  "source": "paper PMC12371494",
  "about": "“Discovery of YTHDF2 Ligands by Fragment-Based Design” (ACS Bio & Med Chem Au, 2025)",
  "origin": "cited, not measured here",
  "target": "T1, GST-YTHDF2 (Homo sapiens, UniProt Q9Y5A9)",
  "T1 construct": "made in house",
  "T1 sequence (Q9Y5A9 1-579)": "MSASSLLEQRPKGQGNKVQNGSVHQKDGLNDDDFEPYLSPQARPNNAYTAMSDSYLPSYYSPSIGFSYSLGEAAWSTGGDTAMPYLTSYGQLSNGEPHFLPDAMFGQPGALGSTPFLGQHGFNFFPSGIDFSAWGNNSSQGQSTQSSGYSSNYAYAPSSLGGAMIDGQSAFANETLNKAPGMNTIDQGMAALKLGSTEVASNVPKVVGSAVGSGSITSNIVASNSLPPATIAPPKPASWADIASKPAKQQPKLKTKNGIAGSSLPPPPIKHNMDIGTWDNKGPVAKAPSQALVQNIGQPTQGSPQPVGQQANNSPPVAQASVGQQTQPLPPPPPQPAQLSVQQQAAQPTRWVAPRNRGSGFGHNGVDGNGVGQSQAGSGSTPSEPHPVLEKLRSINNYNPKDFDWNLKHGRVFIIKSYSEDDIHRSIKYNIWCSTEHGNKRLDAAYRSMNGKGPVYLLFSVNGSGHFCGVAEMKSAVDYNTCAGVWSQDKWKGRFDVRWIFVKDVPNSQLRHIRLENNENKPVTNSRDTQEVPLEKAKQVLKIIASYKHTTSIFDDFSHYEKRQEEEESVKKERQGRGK",
  "conditions": "HTRF, 1 mM compound; cited from earlier work",
  "data": [
    {"smiles": "CNc1ncnc2[nH]cnc12", "note": "[m^6-Adenine]", "values": [
      {"measurement": "Residual signal at 1 mM concentration", "result": "75 (Ref. ^13) %"}
    ]}
  ]
}
